Laboratory results from patent US6667322B2, “Antidepressant chroman and chromene derivatives of 3-(1,2,3,6-tetrahydro-4-pyridinyl)-1H-indole” (Wyeth, priority 2001, dated 2003).
Where a name gives a salt, the structure may show the parent alone. Read-outs that look alike come from different tables or passages of the source.

What was measured:
serotonin transporter = biological target: T1, serotonin transporter (Rattus norvegicus, UniProt P31652); experiment: 3H-paroxetine displacement from rat frontal cortical membranes (serotonin transporter affinity); format: binding
T1 construct: displace ^3H-paroxetine from male rat frontal cortical membranes; from tissue; host or cells: male rat frontal cortex membranes

human 5-HT1A receptors = biological target: T2, human 5-HT1A receptors (Homo sapiens, UniProt P08908); experiment: [3H] 8-OHDPAT displacement from 5-HT1A receptor in transfected CHO cells; format: binding
T2 construct: expressed in transfected cells; host or cells: CHO cells
T2 sequence (P08908 1-422): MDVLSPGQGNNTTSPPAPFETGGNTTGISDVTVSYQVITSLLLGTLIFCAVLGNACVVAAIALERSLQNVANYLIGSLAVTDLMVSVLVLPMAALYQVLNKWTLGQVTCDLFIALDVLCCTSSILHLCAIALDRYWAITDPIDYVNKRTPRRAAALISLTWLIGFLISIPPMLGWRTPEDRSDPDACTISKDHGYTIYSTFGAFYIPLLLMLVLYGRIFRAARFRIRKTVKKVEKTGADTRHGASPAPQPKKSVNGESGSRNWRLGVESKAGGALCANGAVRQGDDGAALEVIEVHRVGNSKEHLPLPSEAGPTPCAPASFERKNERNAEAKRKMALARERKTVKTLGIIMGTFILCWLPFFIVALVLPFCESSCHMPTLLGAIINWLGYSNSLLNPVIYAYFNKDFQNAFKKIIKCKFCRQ
Excerpt: High affinity for the serotonin 5-HT1A receptor was established by testing the claimed compound's ability to displace [^3H] 8-OHDPAT (dipropylamino-tetralin) from the 5-HT1A serotonin receptor following a modification of the procedure of Hall et al., J. Neurochem. 44, 1685 (1985) which utilizes CHO cells stably transfected with human 5-HT1A receptors.

[1] = biological target: T3, cloned human 5-HT1A receptors (Homo sapiens, UniProt P08908); experiment: 35S-GTPγS binding assay, agonist activity at 5-HT1A receptors; format: biochemical; settings: for Emax: read-out: 5-HT1A Function (Emax); for EC50: 35S-GTPγS binding to membranes containing cloned human 5-HT1A receptors, read-out: 5-HT1A Function EC50
T3 construct: expressed in transfected cells
T3 sequence (P08908 1-422): T2 sequence (P08908 1-422)
Method: Agonist activity at 5-HT1A receptors was established by using a ^35S-GTPγbinding assay similar to that used by Lazareno and Birdsall (Br. J. Pharmacol. 109: 1120, 1993), in which the test compound's ability to affect the binding of ^35S-GTPγS to membranes containing cloned human 5-HT1A receptors was determined. Agonists produce an increase in binding whereas antagonists produce no increase but rather reverse the effects of the standard agonist 8-OHDPAT. The test compound's maximum stimulatory effect is represented as the Emax, while its potency is defined by the EC50.

[2] = displacement of 3H-paroxetine, male rat frontal cortical membranes, read-out: 5-HT Transporter Affinity KI
[3] = displacement of [3H] 8-OHDPAT, CHO cells stably transfected with human 5-HT1A receptors, read-out: 5-HT1A Receptor Affinity KI

T1 sequence (P31652 whole entry): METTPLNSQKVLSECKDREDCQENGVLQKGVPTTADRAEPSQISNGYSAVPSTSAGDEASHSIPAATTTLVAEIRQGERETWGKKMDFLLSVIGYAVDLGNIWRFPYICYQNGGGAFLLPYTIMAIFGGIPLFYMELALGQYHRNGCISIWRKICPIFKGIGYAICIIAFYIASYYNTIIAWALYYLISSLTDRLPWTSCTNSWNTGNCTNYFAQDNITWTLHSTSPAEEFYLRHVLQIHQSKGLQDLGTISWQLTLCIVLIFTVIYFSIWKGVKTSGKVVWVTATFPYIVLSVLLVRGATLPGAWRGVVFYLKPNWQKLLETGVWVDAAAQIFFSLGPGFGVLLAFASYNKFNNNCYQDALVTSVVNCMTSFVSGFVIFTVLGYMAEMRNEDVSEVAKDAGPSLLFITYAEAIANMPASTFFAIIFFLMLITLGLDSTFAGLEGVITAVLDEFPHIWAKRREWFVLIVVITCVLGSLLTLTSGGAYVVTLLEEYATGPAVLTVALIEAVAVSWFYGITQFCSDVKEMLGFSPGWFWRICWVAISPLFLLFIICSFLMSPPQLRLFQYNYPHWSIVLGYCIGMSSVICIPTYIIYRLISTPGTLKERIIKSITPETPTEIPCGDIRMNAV

Fc1ccc2[nH]c(CC3CCN(CC4CCc5ccccc5O4)CC3)cc2c1 (stereo not shown) (as salt: oxalate) (hydrate or solvate) [Example 1, 2-{[1-(3,4-Dihydro-2H-chromen-2-ylmethyl)-4-piperidinyl]methyl}-5-fluoro-1H-indole]
melting point: 187 to 190 °C

Fc1ccc2[nH]c(CC3CCN(CC4CCc5ccccc5O4)CC3)cc2c1 (stereo not shown) [Example 1, 2-{[1-(3,4-Dihydro-2H-chromen-2-ylmethyl)-4-piperidinyl]methyl}-5-fluoro-1H-indole]
Ki (serotonin transporter; [2]): 0.13 nM | Ki (human 5-HT1A receptors; [3]): 265 nM

C1=C(c2c[nH]c3ccccc23)CCN(CC2CCc3ccccc3O2)C1 (stereo not shown) [Example 2, 3-[1-(3,4-Dihydro-2H-chromen-2-ylmethyl)-1,2,3,6-tetrahydro-4-pyridinyl]-1H-indole]
Ki (serotonin transporter): 1.18 nM | Ki (human 5-HT1A receptors; [3]): 281 nM | Emax [1]: 50% | melting point: 171 to 173 °C

Fc1ccc2[nH]cc(C3=CCN(CC4CCc5ccccc5O4)CC3)c2c1 (stereo not shown) [Example 3, 3-[1-(3,4-Dihydro-2H-chromen-2-ylmethyl)-1,2,3,6-tetrahydro-4-pyridinyl]-5-fluoro-1H-indole]
Ki (serotonin transporter): 4.84 nM | Ki (human 5-HT1A receptors; [3]): 299 nM | EC50 [1]: 398 nM | Emax [1]: 83% | melting point: 172 to 175 °C

COc1cccc2c1OC(CN1CC=C(c3c[nH]c4ccc(F)cc34)CC1)CC2 (stereo not shown) [Example 4, 5-Fluoro-3-(1-{[8-methoxy-3,4-dihydro-2H-chromen-2-yl]methyl}-1,2,3,6-tetrahydro-4-pyridinyl)-1H-indole]
Ki (serotonin transporter): 9.5 nM | Ki (human 5-HT1A receptors): 34.4 nM | EC50 [1]: 283 nM | Emax [1]: 92% | melting point: 177 to 180 °C (dec.)

COc1cccc2c1OC(CN1CC=C(c3c[nH]c4ccccc34)CC1)CC2 (stereo not shown) [Example 5, (3-(1-{8-Methoxy-3,4-dihydro-2H-chromen-2-yl]methyl}-1,2,3,6-tetrahydro-4-pyridinyl)-1H-indole]
Ki (serotonin transporter; [2]): 10 nM | Ki (human 5-HT1A receptors; [3]): 39 nM | EC50 [1]: 189 nM | 5-HT1A Function (Emax) ([1]; maximum stimulatory effect, 35S-GTPγS binding, cloned human 5-HT1A receptors, value in parentheses): 79.0

Fc1ccc2c(C3=CCN(CC4CCc5ccccc5O4)CC3)c[nH]c2c1 (stereo not shown) [Example 6, 3-[1-(3,4-Dihydro-2H-chromen-2-ylmethyl)-1 2,3,6-tetrahydro-4-pyridinyl]-6-fluoro-1H-indole]
Ki (serotonin transporter): 0.34 nM | EC50 [1]: 2480 nM | Emax [1]: 100% | melting point: 160 to 161 °C

COc1cccc2c1OC(CN1CC=C(c3c[nH]c4cc(F)ccc34)CC1)CC2 (stereo not shown) [Example 7, 6-Fluoro-3-(1-{[8-methoxy-3,4-dihydro-2H-chromen-2-yl]methyl}-1,2,3,6-tetrahydro-4-pyridinyl)-1H-indole]
Ki (serotonin transporter): 8.5 nM | Ki (human 5-HT1A receptors): 45 nM | EC50 [1]: 854 nM | Emax [1]: 64% | melting point: > 170 °C (dec.)

COc1cccc2c1OC(CN1CC=C(c3c[nH]c4ccc(F)cc34)CC1)C=C2 (stereo not shown) [Example 8, 5-Fluoro-3-(1-{[8-methoxy-2H-chromen-2-yl]methyl}-1,2,3,6-tetrahydro-4-pyridinyl)-1H-indole]
Ki (serotonin transporter): 20 nM | Ki (human 5-HT1A receptors; [3]): 143 nM | EC50 [1]: 1710 nM | Emax [1]: 60% | melting point: 189 to 191 °C (dec.)

COc1cccc2c1OC(CN1CC=C(c3c[nH]c4ccccc34)CC1)C=C2 (stereo not shown) [Example 9, 3-(1-{[8-Methoxy-2H-chromen-2-yl]methyl}-1,2,3,6-tetrahydro-4-pyridinyl)-1H-indole]
Ki (serotonin transporter): 9.5 nM | Ki (human 5-HT1A receptors): 96.5 nM | EC50 [1]: 208 nM | Emax [1]: 67% | melting point: 198 to 200 °C (dec.)
